Data on two molecules can be found in publication PMC10820640, “An Intravenous Pharmacokinetic Study of Cannabidiol Solutions in Piglets through the Application of a Validated Ultra-High-Pressure Liquid Chromatography Coupled to Tandem Mass Spectrometry Method for the Simultaneous Quantification of CBD and Its Carboxylated Metabolite in Plasma” (Pharmaceutics, 2024).

On the set-up of data set [1]: method as in PMID 34400185. The conditions noted are these: reported in the literature; cited from earlier work.
Data set [2] can be described thus: Intravenous pharmacokinetic study of CBD:HP-β-CD solution in piglets (UHPLC-MS/MS plasma quantification). In kind it is in vivo, Large White piglets. Set-up: A (macro constant): unit not given beside the values; γ (macro constant) / α (macro constant) / B (macro constant) / β (macro constant) / C (macro constant): unit not given here. The conditions noted are these: for AUC(0-t) / Cmax: piglet plasma, IV 0.3 mg/kg CBD, non-compartmental analysis, normalized to dose. As for the experimental part: The in vivo study was performed within the PigForLife® (CER Group Facilities) GLP structure (Marloie, Belgium). The study protocols were approved by the Local Ethical Commission before starting the study and complied with the Belgian regulation as published in the «Royal Decree of 29 May 2013 on the protection of experimental animals, A.G.W. 30 November 2017».
Sterile and isotonic CBD:HP-β-CD 100 mM (1.2 mg CBD/mL) solutions were prepared. A HP-β-CD stock solution (200 mM) was prepared by dissolving 31.0 g of HP-β-CD up to 100 mL with milliQ water. CBD:HP-β-CD complexes were prepared by adding an excess of CBD (45 mg) powder to 5 mL of milliQ water and 5 mL of the HP-β-CD stock solution, added with 84 mg of NaCl. The suspensions were kept in a rotating water bath set at 37 °C for 12 h. The suspensions were finally filtered through a 0.2 µm PHENEX® PTFE filter in laminar flow insulator conditions. The osmolarity and the pH value of the solutions were determined using a Freezing Point Osmometer (Löser, Delta Labo, Avignon, France) and a pH meter (Seven Easy, Mettler Toledo, Zaventem, Belgium), respectively. The solutions were injected to three Large White piglets (male and female, between 8 and 10 kg) at a dose of 0.3 mg/kg, as detailed in Table 3.
The animals were born on site and used in good health. The animals were housed together in pens of about 40 m^2 and an enriched environment was provided. Natural temperature and light cycles were used in a straw litter. During storage, the animals were fed ad libitum with a balanced pellet diet and were not given any curative or prophylactic veterinary drugs or additives during the study period. Tap water was available ad libitum. The piglets were fasted overnight ([…]) before receiving the formulations. All piglets were clinically examined before the study and before sampling. Blood samples (2 mL in EDTA tubes) were taken at 5 min, 10 min, 20 min, 30 min 45 min, 60 min, 90 min, 2 h, 4 h and 8 h. Blood samples were stored at 4 °C and centrifuged at 2500× g for 10 min. Plasma samples were then frozen at −80 °C until their analysis.
Pharmacokinetic analyses were evaluated by using the software Phoenix WinNonlin 8.4 version (Certara, Princeton, NJ, USA). Cmax and AUClast were determined through a non-compartmental pharmacokinetic analysis using the linear trapezoidal linear interpolation calculation method. Obtained values were normalized do the dose administered. The volumes of distribution (V1 and Vss), clearance and macro (A, B, C, α, β, γ) and micro (k10, k12, k21, k13, k31) constants were determined assuming a 2- or 3-compartment model. The model offering the best compromise between fitting and the number of parameters was selected based on an F test approach.

On the set-up of data set [3]: method as in PMID 31173966. The conditions noted are these: mice, CBD emulsion IV 10 mg/kg; cited from earlier work.
On the set-up of data set [4]: method as in PMID 35895770. The conditions noted are these: horses, IV CBD in DMSO 0.1 mg/kg; cited from earlier work.
Details of data set [5]: method as in PMID 30534073. Conditions: humans, cited from earlier work.
The mark [6] stands for this setting: both sexes, Large White, pig, n = 3.
The mark [7] stands for this setting: IV-bolus three-compartment model, n = 2.
The mark [8] stands for this setting: IV-bolus three-compartment model, n = 3.
[9] abbreviates: IV-bolus two-compartment model, n = 2.
The mark [10] stands for this setting: IV-bolus two-compartment model, n = 3.
Where [11] appears, read: piglets, IV, two-compartment model.

The structures appear in SMILES notation. Where two headings read alike, the source gives them in different places.

In general, AUC(0-t) refers to the area under the concentration-time curve up to a stated or last time point. Usually Cmax stands for the peak of the concentration-time curve. Consider `C=C(C)C1CCC(C(=O)O)=CC1c1c(O)cc(CCCCC)cc1O` (centres unmarked) [7-COOH-CBD, 7-COOH-cannabidiol], for which the “metabolite plasmatic concentration relative to that of CBD” value in data set [1] is on record as 40 fold. In data set [2] (setting [6]), this molecule came in with an AUC(0-t) of 3930 ± 572 ng·h/mL and a Cmax of 610 ± 169 ng/mL. For the same molecule, the “earliest time metabolite concentrations were observed” value in data set [2] (piglet plasma after IV CBD 0.3 mg/kg, first sampling point) turned out to be 5 min.
Usually clearance stands for the rate of elimination divided by the concentration. As usually defined, the half-life is the time in which the quantity being followed falls by half. Take `C=C(C)[C@@H]1CCC(C)=C[C@H]1c1c(O)cc(CCCCC)cc1O` [CBD, Cannabidiol]: in data set [3], the clearance was 56.7 mL/min/kg and the half-life is given as 3.9 h. In data set [2] (setting [7]), the “A (macro constant)” value is 638.52 ± 60.91, the “B (macro constant)” value amounted to 330.39 ± 41.34, the “C (macro constant)” value is 17.71 ± 15.74 and the “α (macro constant)” value is 12.28 ± 7.90. In data set [2] (setting [7]), the “β (macro constant)” value turned out to be 0.80 ± 0.19 and the “γ (macro constant)” value amounted to 0.09 ± 0.12. In addition, in data set [2] (setting [8]), the “A (macro constant)” value is 640.14 ± 43.16, the “C (macro constant)” value turned out to be 10.56 ± 6.33, the “β (macro constant)” value turned out to be 0.70 ± 0.21 and the “γ (macro constant)” value is 316.02 ± 38.40. In data set [2] (setting [9]), the “A (macro constant)” value is given as 500.89 ± 129.30, the “B (macro constant)” value stood at 133.91 ± 105.05, the “α (macro constant)” value is on record as 2.75 ± 2.18 and the “β (macro constant)” value is given as 0.33 ± 0.10. For the same molecule, in data set [2] (setting [10]), the “A (macro constant)” value came out at 542.53 ± 116.45, the “B (macro constant)” value worked out at 168.95 ± 95.92, the “α (macro constant)” value came out at 3.71 ± 2.26 and the “β (macro constant)” value is on record as 0.34 ± 0.07. Besides, in data set [2] (both sexes, Large White, pig, plasma, 0.3 mg/kg, piglets, IV, two-compartment model, read-out: Cl (clearance) (converted)), the clearance is 25.2 mL/min. Further, the Vd in data set [2] (both sexes, Large White, pig, plasma, 0.3 mg/kg, piglets, IV, two-compartment model, read-out: Vss (volume at steady state)) came out at 3.26 ± 0.287 L. In addition, in data set [2] (setting [6]), the exposure AUC(0-t) is 639 ± 79.2 ng·h/mL and the concentration peaked (Cmax) at 600 ± 75.8 ng/mL. Besides, the half-life in data set [2] (both sexes, Large White, pig, piglets, IV 0.3 mg/kg CBD:HP-β-CD solution, experimental plasma profile, read-out: apparent distribution half-life (converted)) is 0.25 h. In addition, the elimination half-life entry in data set [2] (piglets, IV 0.3 mg/kg CBD:HP-β-CD solution, experimental plasma profile) is on record as “two”. In data set [2] (setting [11]), the “Capacity (k12/k21)” value is reported as 1.5; the “Depth (k10/k12)” value stood at 0.58; the “V1 (volume of the central compartment)” value turned out to be 1512.43 ± 538.41 mL; the “fc (ratio of quantity in the central compartment over total quantity, β/k1-0)” value is 0.33. In data set [2] (setting [11]), the “k1-0 (micro constant)” value worked out at 1.04 ± 0.20 h⁻¹, the “k1-2 (micro constant)” value was 1.80 ± 1.43 h⁻¹ and the “k2-1 (micro constant)” value came out at 1.20 ± 0.74 h⁻¹. In addition, the half-life in data set [4] is 3.15 h. Further, the “half-life of elimination (t1/2)” value in data set [5] (after chronic oral administration) is given as “several days”. For the same molecule, in data set [5] (following an intravenous injection), the clearance is 74.4 L/h. For the same molecule, the “half-life of elimination (t1/2)” value in data set [5] (pulmonary or single oral administration) is “around one or two”.
